pIC50: −log10 of the molar value. Read-outs that look alike come from different tables or passages of the source.
Tests used:
[1] = target: T1, recombinant murine JAK3 (Mus musculus, UniProt Q62137); experiment: Immune complex kinase assay, recombinant JAK3 from baculovirus expression system; format: biochemical; settings: recombinant murine JAK3, FIG. 6B
T1 construct: made in house; host or cells: Sf21 insect cells, baculovirus
T1 sequence (Q62137 1-1100): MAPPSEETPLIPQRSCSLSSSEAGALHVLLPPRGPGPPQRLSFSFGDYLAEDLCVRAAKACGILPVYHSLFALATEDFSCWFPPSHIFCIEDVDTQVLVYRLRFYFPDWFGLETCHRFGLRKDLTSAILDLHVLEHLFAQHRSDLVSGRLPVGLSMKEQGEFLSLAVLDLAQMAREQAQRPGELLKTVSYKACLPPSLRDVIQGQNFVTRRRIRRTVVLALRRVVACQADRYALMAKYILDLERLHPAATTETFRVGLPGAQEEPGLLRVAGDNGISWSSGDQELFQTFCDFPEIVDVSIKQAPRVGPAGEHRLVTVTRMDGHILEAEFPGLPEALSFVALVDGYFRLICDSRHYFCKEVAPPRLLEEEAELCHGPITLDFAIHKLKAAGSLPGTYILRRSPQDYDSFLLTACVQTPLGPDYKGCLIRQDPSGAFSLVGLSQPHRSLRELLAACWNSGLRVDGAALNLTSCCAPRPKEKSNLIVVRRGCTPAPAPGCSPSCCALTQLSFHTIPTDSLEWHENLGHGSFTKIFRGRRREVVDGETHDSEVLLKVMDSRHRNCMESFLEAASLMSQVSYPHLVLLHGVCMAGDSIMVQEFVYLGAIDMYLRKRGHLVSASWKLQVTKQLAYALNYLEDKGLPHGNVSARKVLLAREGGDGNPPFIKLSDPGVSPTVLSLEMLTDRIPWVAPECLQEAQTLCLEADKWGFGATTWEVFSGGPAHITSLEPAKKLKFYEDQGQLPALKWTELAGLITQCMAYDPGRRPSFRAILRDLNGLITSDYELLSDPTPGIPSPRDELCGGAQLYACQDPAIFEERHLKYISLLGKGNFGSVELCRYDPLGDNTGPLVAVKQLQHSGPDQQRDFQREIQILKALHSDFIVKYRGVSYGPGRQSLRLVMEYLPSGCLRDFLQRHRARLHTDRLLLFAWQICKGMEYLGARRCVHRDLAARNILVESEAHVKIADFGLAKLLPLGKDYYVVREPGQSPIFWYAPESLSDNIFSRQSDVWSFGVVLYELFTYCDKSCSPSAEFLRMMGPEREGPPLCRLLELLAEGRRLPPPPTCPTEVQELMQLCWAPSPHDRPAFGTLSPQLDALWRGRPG
Experimental: (§1) Immune Complex Kinase Assays.
KL-2 EBV-transformed human lymphoblastoid B cells (native JAK3 kinase assays) or insect ovary cells (recombinant JAK3 kinase assays) were lysed with NP-40 lysis buffer (50 mM Tris, pH 8, 150 mM NaCl, 5 mM EDTA, 1% NP-40, 100 μM sodium orthovanadate, 100 μM sodium molybdate, 8 μg/ml aprotinin, 5 μg/ml leupeptin, and 500 μM PMSF) and centrifuged 10 minutes at 13000×g to remove insoluble material. Samples were immunoprecipitated with antisera prepared against JAK3. The antisera were diluted and immune complexes collected by incubation with 15 μl protein A Sepharose. After 4 washes with NP-40 lysis buffer, the protein A Sepharose beads were washed once in kinase buffer (20 mM MOPS, pH 7.0, 10 mM MgCl2) and resuspended in the same buffer. Reactions were initiated by the addition of 25 μCi γ[^32P] ATP (5000 Ci/mMole) and unlabeled ATP to a final concentration of 5 μM. Reactions were terminated by boiling for 4 min in SDS sample buffer. Samples were run on 9.5% SDS polyacrylamide gels and labeled proteins will be detected by autoradiography. […] For each drug concentration, a kinase activity index (KA) was determined by comparing the kinase activity in phosphorimager units (PIU) to that of the baseline sample. […]

[2] = target: T2, recombinant JAK1 (Homo sapiens, UniProt P23458); experiment: Immune complex kinase assay, recombinant JAK1; format: biochemical; settings: FIG. 6C & D
T2 construct: made in house; host or cells: Sf21 insect cells, baculovirus
T2 sequence (P23458 whole entry): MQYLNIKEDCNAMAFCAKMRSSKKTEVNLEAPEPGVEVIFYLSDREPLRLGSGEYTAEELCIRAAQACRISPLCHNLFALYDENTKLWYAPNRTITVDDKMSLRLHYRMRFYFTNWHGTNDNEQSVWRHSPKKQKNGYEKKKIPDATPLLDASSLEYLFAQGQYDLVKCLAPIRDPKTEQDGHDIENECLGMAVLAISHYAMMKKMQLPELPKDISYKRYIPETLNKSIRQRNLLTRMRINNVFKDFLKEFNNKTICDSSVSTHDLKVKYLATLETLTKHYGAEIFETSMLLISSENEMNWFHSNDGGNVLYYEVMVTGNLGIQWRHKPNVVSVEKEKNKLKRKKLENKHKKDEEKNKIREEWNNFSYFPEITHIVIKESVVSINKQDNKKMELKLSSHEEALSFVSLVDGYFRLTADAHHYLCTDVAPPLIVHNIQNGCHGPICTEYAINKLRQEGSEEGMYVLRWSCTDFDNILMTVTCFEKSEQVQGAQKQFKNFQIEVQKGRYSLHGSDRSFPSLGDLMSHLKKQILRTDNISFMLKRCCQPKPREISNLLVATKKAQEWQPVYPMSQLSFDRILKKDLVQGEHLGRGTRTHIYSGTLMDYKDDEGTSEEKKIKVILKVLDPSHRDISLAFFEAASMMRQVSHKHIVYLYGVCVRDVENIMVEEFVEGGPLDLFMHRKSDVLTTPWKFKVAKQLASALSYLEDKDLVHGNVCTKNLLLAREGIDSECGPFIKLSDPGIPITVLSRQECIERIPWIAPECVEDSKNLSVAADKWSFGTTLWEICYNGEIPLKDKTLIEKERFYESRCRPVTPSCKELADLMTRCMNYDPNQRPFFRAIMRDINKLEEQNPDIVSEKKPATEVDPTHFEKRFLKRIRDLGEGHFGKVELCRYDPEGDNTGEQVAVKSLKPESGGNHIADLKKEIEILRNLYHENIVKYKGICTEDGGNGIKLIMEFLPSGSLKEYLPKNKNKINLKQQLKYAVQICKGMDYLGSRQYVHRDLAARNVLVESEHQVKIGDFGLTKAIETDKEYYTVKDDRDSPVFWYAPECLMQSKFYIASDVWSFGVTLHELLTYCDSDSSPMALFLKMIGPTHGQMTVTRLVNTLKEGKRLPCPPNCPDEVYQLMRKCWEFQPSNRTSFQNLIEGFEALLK
Text: as §1

[3] = tested on: JAK3-dependent STAT activation; experiment: EMSA, IL-2 triggered STAT activation in 32Dc11/IL2Rβ cells; format: cell-based
Experimental: (§2) Electrophoretic Mobility Shift Assays (EMSAs). EMSAs were performed to examine the effects of dimethoxyquinazoline compounds on cytokine-induced STAT activation (Goodman et. al., 1998). […] Cells were collected after 15 minutes and resuspended in lysis buffer (100 mM Tris-HCl pH 8.0, 0.5% NP-40, 10% glycerol, […], 0.1 mM NaVO3, 50 mM NaF, 150 mM NaCl, 1 mM DTT, 3 μg/ml Aprotinin, 2 μg/ml Pepstatin A, 1 μg/ml Leupeptin and 0.2 mM PMSF). Lysates were precleared by centrifugation for 30 min. Cell extracts (approximately 10 μg) were incubated with 2 μg of poly(dI-dC) for 30 minutes, followed by a 30 minutes incubation with 1ng of poly. nucleotide kinase-^32P labeled double stranded DNA oligonucleotide representing the IRF-1 STAT DNA binding sequence (Santa Cruz Biotechnology, Santa Cruz, Calif.). Samples were resolved by non-denaturing PAGE and visualized by autoradiography.

[4] = tested on: JAK1/JAK2-dependent STAT activation; experiment: EMSA, IL-3 triggered STAT activation in 32Dc11/IL2Rβ cells; format: cell-based; settings: 10 μg/ml
Experimental: as §2

[5] = tested on: RBL-2H3 mast cells; experiment: IgE/antigen-induced degranulation and mediator release; format: cell-based, rat; settings: 1 h preincubation, DNP-BSA challenge; at ≧30 μM
Text: Vehicle treated control RBL-2H3 cells released 45.1±3.1% of their hexosaminidase contents after DNP-BSA challenge. […] Vehicle treated control cells released 11.3±1.3 pg LTC4, and 160±33.0 pg TNFα/10^6 mast cells. The results on LTC4 and TNFα release are expressed as percent of maximum control release from vehicle treated control mast cells. The data points represent the mean±SEM values obtained from 3-6 independent experiments. […] *P<0.05 and **P<0.0001 compared to control as determined by Student's t test.
Supernatants were removed and saved.

[6] = target: recombinant JAK2 (Homo sapiens, UniProt O60674); experiment: Immune complex kinase assay, recombinant JAK2; settings: FIG. 6C & D
Chain of recombinant JAK2 (O60674 whole entry): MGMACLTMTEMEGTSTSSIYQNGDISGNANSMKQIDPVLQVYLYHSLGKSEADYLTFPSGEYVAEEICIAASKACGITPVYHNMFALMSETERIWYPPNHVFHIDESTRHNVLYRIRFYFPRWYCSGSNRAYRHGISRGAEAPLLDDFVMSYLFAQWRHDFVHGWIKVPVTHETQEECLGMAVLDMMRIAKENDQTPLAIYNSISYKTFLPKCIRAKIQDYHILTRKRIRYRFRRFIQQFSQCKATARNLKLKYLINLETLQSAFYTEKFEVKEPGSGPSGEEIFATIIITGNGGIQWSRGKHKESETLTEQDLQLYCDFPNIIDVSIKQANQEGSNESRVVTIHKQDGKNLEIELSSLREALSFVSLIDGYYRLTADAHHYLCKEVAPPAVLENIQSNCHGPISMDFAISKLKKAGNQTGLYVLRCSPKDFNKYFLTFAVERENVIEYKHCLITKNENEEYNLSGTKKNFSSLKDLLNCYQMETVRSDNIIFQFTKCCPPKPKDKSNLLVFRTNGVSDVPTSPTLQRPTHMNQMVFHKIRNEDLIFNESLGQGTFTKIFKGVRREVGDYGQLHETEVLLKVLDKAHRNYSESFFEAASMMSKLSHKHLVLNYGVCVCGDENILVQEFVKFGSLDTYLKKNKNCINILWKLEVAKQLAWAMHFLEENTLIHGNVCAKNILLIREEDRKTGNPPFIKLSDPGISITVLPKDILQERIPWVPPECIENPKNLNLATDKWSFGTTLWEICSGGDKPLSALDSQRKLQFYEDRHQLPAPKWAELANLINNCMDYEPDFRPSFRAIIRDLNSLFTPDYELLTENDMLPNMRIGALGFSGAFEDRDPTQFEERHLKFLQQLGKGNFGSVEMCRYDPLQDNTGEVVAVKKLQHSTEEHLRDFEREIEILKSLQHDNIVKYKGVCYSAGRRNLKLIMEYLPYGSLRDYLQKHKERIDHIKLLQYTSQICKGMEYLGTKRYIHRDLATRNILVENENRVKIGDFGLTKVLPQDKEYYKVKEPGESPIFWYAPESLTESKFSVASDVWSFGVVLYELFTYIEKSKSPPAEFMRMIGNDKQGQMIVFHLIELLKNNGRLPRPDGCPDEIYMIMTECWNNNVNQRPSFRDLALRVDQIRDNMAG
Experimental: In FIGS. 6A-6D, JAK3, JAK1, and JAK2 were immunoprecipitated from Sf21 insect ovary cells transfected with the appropriate baculovirus expression vectors and treated with WHI-P131, then subjected to in vitro kinase assays as described in the Examples below. The enzymatic activity of JAKs was determined by measuring autophosphorylation in a 10 minute kinase assay, as described in the Examples below. The kinase activity (KA) levels were expressed as percentage of baseline activity (%CON).
Immune Complex Kinase Assays. Sf21 (IPLB-SF21-AE) cells (Vassilev et. al., 1999, J. Biol. Chem,. 274:1646-1656) derived from the ovarian tissue of the fall armyworm Spodotera frugiperda, were obtained from Invitrogen and maintained at 26-28° C. in Grace's insect cell medium supplemented with 10% FBS and 1.0% antibiotic/antimycotic (GIBCO-BRL). Stock cells were maintained in suspension at 0.2-1.6×10^6/ml in 600 ml total culture volume in 1 L Bellco spinner flasks at 60-90 rpm. Cell viability was maintained at 95-100% as determined by trypan blue dye exclusion.
Sf21 cells were infected with a baculovirus expression vector for BTK, SYK, JAK1, JAK2, or JAK3, as previously reported (Mahajan et. al., 1999, J. Biol. Chem., 274:1646-1656). […]

## COc1cc2ncnc(Nc3ccc(O)c(Br)c3)c2cc1OC [WHI-P154, 4-(3′-Bromo-4′-hydroxylphenyl)-amino-6,7-dimethoxyquinazoline]
[1]
  IC50: 48.1 mg/L
[1]; molar value in brackets, read-out: IC50
  pIC50: ~3.89
[2]
  inhibitory activity against recombinant JAK1: did not exhibit any detectable inhibitory activity
[3]; 10 μg/ml, 32Dc11/IL2Rβ cells
  JAK3-dependent STAT activation after stimulation with IL-2: inhibited
[3]; 100 μg/ml in FIG. 6E legend
  IL-2 triggered JAK-3-dependent STAT activation: inhibited
[4]
  JAK1/JAK2-dependent STAT activation after stimulation with IL-3: did not affect
[5]
  LTC4 release: near to complete inhibition
  TNFα release: near to complete inhibition
  β-hexosaminidase release (degranulation): near to complete inhibition
[6]
  inhibitory activity against recombinant JAK2: did not exhibit any detectable inhibitory activity

Reference: patent publication US6452005B1, “JAK-3 inhibitors for treating allergic disorders” (Parker Hughes Institute, priority 1999, dated 2002)
